The source of these data is paper PMC10786919, “Design-rules for stapled peptides with in vivo activity and their application to Mdm2/X antagonists” (Nature Communications, 2024).

SMILES strings stand for the structures. Converted amounts (≈) assume the structure as drawn. Positions of bridges follow the written chain, without caps; N, C: chain ends. Non-standard residues stand in square brackets, D forms with d. Residues, ends and D or L forms follow the SMILES beside them. Lys(N3) = [N-]=[N+]=NCCCC[C@H](N)C(=O)O; R8 = C=CCCCCCC[C@@](C)(N)C(=O)O; Cba = N[C@@H](CC1CCC1)C(=O)O; S5 = C=CCCC[C@](C)(N)C(=O)O; βAla = NCCC(=O)O Where only a bound is given, the exact number is not on record here.

The nature of data set [1]: Lactate dehydrogenase (LDH) release assay. It counts as cell-based. Particulars: LDH: Cytotoxicity assay EC50. In a few lines:
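Membrane damage measured as lactate dehydrogenase release (CytoTox-ONE kit) from p53-responsive β-lactamase reporter HCT116 cells plated at 8000 per well. Final DMSO 0.5%; geometric mean reported from a minimum of three biological replicates.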

Data set [2] can be described thus: Solubility assay (kinetic solubility, PBS pH 7). Particulars: pH 7, PBS; for solubility kinetic: pH 7, aqueous buffer, kinetic from dmso stock, read-out: Solubility. It counts as physicochemical. A digest of the protocol: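 Next, measure peak areas of sample and standard. Finally, multiply their ratio by the standard concentration to obtain solubility (µM).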
A short description of a further data set: in vitro. Particulars: Nanoclick permeability assay EC50. In a few lines:
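Azido-peptide permeability was read as loss of NanoBRET signal (donor 450 nm, acceptor 610 nm) after adding NanoBret618-azide at 10 μM final.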

Data set [3] is described as follows: Experimental LogD (partition coefficient). To be noted: for logD: not stated, Partition Coeff LogD.

As usually defined, the EC50 is the midpoint of the concentration-response curve. The low end stands for greater potency, the high end for weaker potency. The term logD denotes lipophilicity at a set pH, counting ionised and neutral species. Low readings indicate a more hydrophilic compound, high ones a more lipophilic compound.

For `CC(=O)N[C@@H](CCCCN=[N+]=[N-])C(=O)NCCC(=O)N[C@@H](CC(C)C)C(=O)N(C)[C@H](C(=O)N[C@@H](Cc1ccccc1)C(=O)N[C@]1(C)CCCCCCC=CCCC[C@@](C)(C(=O)N[C@@H](CO)C(=O)N[C@@H](C)C(=O)N[C@@H](C)C(N)=O)NC(=O)[C@H](CC2CCC2)NC(=O)[C@H](CCC(N)=O)NC(=O)[C@H](C)NC(=O)[C@H](Cc2c[nH]c3ccccc23)NC(=O)[C@H](Cc2ccc(O)cc2)NC(=O)[C@H](CCC(=O)O)NC1=O)[C@@H](C)O` [MP-190], the EC50 in data set [1] is above 50 µM. Besides, the solubility kinetic in data set [2] was 116 µM (≈ 229 µg/mL). In addition, the cell entry EC50 in “in vitro” is 0.419 µM. The compound further registered an EPSA in the data set “physchem” of 219 A^2. In data set [3], this compound gave a log distribution coefficient (logD) of 2.73.
As for `CC(=O)N[C@@H](CCCCN=[N+]=[N-])C(=O)NCCC(=O)N[C@@H](CCCNC(=N)N)C(=O)N[C@H](C(=O)N[C@@H](Cc1ccccc1)C(=O)N[C@]1(C)CCCCCCC=CCCC[C@@](C)(C(=O)N[C@@H](CCCCN)C(=O)N[C@@H](C)C(=O)N[C@@H](C)C(N)=O)NC(=O)[C@H](CC2CCC2)NC(=O)[C@H](CCCNC(=N)N)NC(=O)[C@H](C)NC(=O)[C@H](Cc2c[nH]c3ccccc23)NC(=O)[C@H](Cc2ccc(O)cc2)NC(=O)[C@H](CCC(=O)O)NC1=O)[C@@H](C)O` [MP-537] (Ac-[Lys(N3)][βAla]RTF[R8]EYWAR[Cba][S5]KAA-NH2; staple 6-13), in data set [1], the EC50 was determined as 7.29 µM. The solubility kinetic in data set [2] was found to be 140 µM (≈ 292 µg/mL). The cell entry EC50 in “in vitro” stood at 0.0879 µM. The compound further registered an EPSA in the data set “physchem” of 224 A^2. Moreover, the logD in data set [3] stood at 2.48.
`CC(=O)N[C@@H](CCCCN=[N+]=[N-])C(=O)NCCC(=O)N[C@@H](CCCNC(=N)N)C(=O)N[C@H](C(=O)N[C@@H](Cc1ccccc1)C(=O)N[C@]1(C)CCCCCCC=CCCC[C@@](C)(C(=O)N[C@@H](CO)C(=O)N[C@@H](C)C(=O)N[C@@H](C)C(N)=O)NC(=O)[C@H](CC2CCC2)NC(=O)[C@H](CCCNC(=N)N)NC(=O)[C@H](C)NC(=O)[C@H](Cc2c[nH]c3ccccc23)NC(=O)[C@H](Cc2ccccc2)NC(=O)[C@H](CCC(=O)O)NC1=O)[C@@H](C)O` [MP-538] (Ac-[Lys(N3)][βAla]RTF[R8]EFWAR[Cba][S5]SAA-NH2; staple 6-13) showed an EC50 in data set [1] of 6.78 µM. Further, the solubility kinetic in data set [2] was 5 µM (≈ 10.1 µg/mL). In addition, the cell entry EC50 in the data set “in vitro” is 0.23 µM. The compound also displayed an EPSA in “physchem” of 223 A^2. The logD in data set [3] was determined as 3.16.
On to `CC(=O)N[C@@H](CCCCN=[N+]=[N-])C(=O)NCCC(=O)N[C@@H](CCCNC(=N)N)C(=O)N[C@H](C(=O)N[C@@H](Cc1ccccc1)C(=O)N[C@]1(C)CCCCCCC=CCCC[C@@](C)(C(=O)N[C@@H](CO)C(=O)N[C@@H](CCCNC(=N)N)C(=O)N[C@@H](C)C(N)=O)NC(=O)[C@H](CC2CCC2)NC(=O)[C@H](CCC(N)=O)NC(=O)[C@H](CCCNC(=N)N)NC(=O)[C@H](Cc2c[nH]c3ccccc23)NC(=O)[C@H](Cc2ccc(O)cc2)NC(=O)[C@H](CCC(=O)O)NC1=O)[C@@H](C)O` [MP-539] (Ac-[Lys(N3)][βAla]RTF[R8]EYWRQ[Cba][S5]SRA-NH2; staple 6-13), for which, in data set [1], the concentration for a half-maximal effect (EC50) amounted to 13.3 µM. In data set [2], the solubility kinetic came to 97.5 µM (≈ 213 µg/mL). Besides, in “in vitro”, the cell entry EC50 amounted to 0.293 µM. The same compound displayed an EPSA in “physchem” of 222 A^2. The same compound gave a logD in data set [3] of 2.4.
Consider `CC(=O)N[C@@H](CCCCN=[N+]=[N-])C(=O)NCCC(=O)N[C@@H](Cc1ccc(O)cc1)C(=O)N[C@H](C(=O)N[C@@H](Cc1ccccc1)C(=O)N[C@]1(C)CCCCCCC=CCCC[C@@](C)(C(=O)N[C@@H](CO)C(=O)N[C@@H](C)C(=O)N[C@@H](C)C(N)=O)NC(=O)[C@H](CC2CCC2)NC(=O)[C@H](Cc2c[nH]c3ccccc23)NC(=O)[C@H](C)NC(=O)[C@H](Cc2c[nH]c3ccccc23)NC(=O)[C@H](Cc2ccc(O)cc2)NC(=O)[C@H](Cc2c[nH]c3ccccc23)NC1=O)[C@@H](C)O` [MP-540] (Ac-[Lys(N3)][βAla]YTF[R8]WYWAW[Cba][S5]SAA-NH2; staple 6-13), for which the EC50 in data set [1] is above 50.6 µM. The solubility kinetic in data set [2] was 2 µM (≈ 4.27 µg/mL). The cell entry EC50 in the data set “in vitro” amounted to 0.0942 µM. In the data set “physchem”, this compound displayed an EPSA of 253 A^2. The compound further displayed a logD in data set [3] of 3.67.
`CC(=O)N[C@@H](CCCCN=[N+]=[N-])C(=O)NCCC(=O)N[C@@H](CCCNC(=N)N)C(=O)N[C@H](C(=O)N[C@@H](Cc1ccccc1)C(=O)N[C@]1(C)CCCCCCC=CCCC[C@@](C)(C(=O)N[C@@H](CO)C(=O)N[C@@H](C)C(=O)N[C@@H](CC(C)C)C(N)=O)NC(=O)[C@H](CC2CCC2)NC(=O)[C@H](CCC(N)=O)NC(=O)[C@H](CC(C)C)NC(=O)[C@H](Cc2c[nH]c3ccccc23)NC(=O)[C@H](Cc2ccc(O)cc2)NC(=O)[C@H](CCC(=O)O)NC1=O)[C@@H](C)O` [MP-541] (Ac-[Lys(N3)][βAla]RTF[R8]EYWLQ[Cba][S5]SAL-NH2; staple 6-13) registered an EC50 in data set [1] above 50.6 µM. Moreover, in data set [2], the solubility kinetic was determined as 4 µM (≈ 8.39 µg/mL). For the same compound, in “in vitro”, the cell entry EC50 was found to be 0.21 µM. Moreover, the EPSA in “physchem” came to 224 A^2. Moreover, the logD in data set [3] was found to be 3.58.
With `CC(=O)N[C@@H](CCCCN=[N+]=[N-])C(=O)NCCC(=O)N[C@@H](CC(C)C)C(=O)N[C@H](C(=O)N[C@@H](Cc1ccccc1)C(=O)N[C@]1(C)CCCCCCC=CCCC[C@@](C)(C(=O)N[C@@H](CO)C(=O)N[C@@H](Cc2ccccc2)C(=O)N[C@@H](Cc2ccccc2)C(N)=O)NC(=O)[C@H](CC2CCC2)NC(=O)[C@H](CCC(N)=O)NC(=O)[C@H](C)NC(=O)[C@H](Cc2c[nH]c3ccccc23)NC(=O)[C@H](Cc2ccc(O)cc2)NC(=O)[C@H](Cc2c[nH]c3ccccc23)NC1=O)[C@@H](C)O` [MP-542] (Ac-[Lys(N3)][βAla]LTF[R8]WYWAQ[Cba][S5]SFF-NH2; staple 6-13), the EC50 in data set [1] was above 50.6 µM. Also, the Solubility result in data set [2] was “Poorly Behaved”. In addition, the cell entry EC50 in the data set “in vitro” is 0.0932 µM. The EPSA in the data set “physchem” came out at 242 A^2. In addition, the logD in data set [3] is 4.46.
`CSCC[C@H](NC(=O)[C@H](CO)NC(=O)[C@]1(C)CCCC=CCCCCCC[C@@](C)(NC(=O)[C@H](Cc2ccccc2)NC(=O)[C@H](Cc2ccc(O)cc2)NC(=O)[C@H](CC(C)C)NC(=O)CCNC(=O)[C@H](CCCCN=[N+]=[N-])NC(C)=O)C(=O)N[C@@H](CCC(=O)O)C(=O)N[C@@H](Cc2ccc(O)cc2)C(=O)N[C@@H](Cc2c[nH]c3ccccc23)C(=O)N[C@@H](C)C(=O)N[C@@H](CCC(N)=O)C(=O)N[C@@H](CC2CCC2)C(=O)N1)C(=O)N[C@@H](CC(C)C)C(N)=O` [MP-543] (Ac-[Lys(N3)][βAla]LYF[R8]EYWAQ[Cba][S5]SML-NH2; staple 6-13) registered an EC50 in data set [1] above 50.6 µM. The solubility kinetic in data set [2] stood at 30.5 µM (≈ 65.1 µg/mL). Also, in “in vitro”, the cell entry EC50 worked out at 0.139 µM. This compound came in with an EPSA in the data set “physchem” of 234 A^2. In data set [3], this compound yielded a logD of 3.56.
For `CC(=O)N[C@@H](CCCCN=[N+]=[N-])C(=O)NCCC(=O)N[C@@H](CC(C)C)C(=O)N[C@H](C(=O)N[C@@H](Cc1ccccc1)C(=O)N[C@]1(C)CCCCCCC=CCCC[C@@](C)(C(=O)N[C@@H](CO)C(=O)N[C@@H](C)C(=O)N[C@@H](CC(C)C)C(N)=O)NC(=O)[C@H](CC2CCC2)NC(=O)[C@H](CCC(N)=O)NC(=O)[C@H](C)NC(=O)[C@H](Cc2c[nH]c3ccccc23)NC(=O)[C@H](Cc2c[nH]c3ccccc23)NC(=O)[C@H](Cc2c[nH]c3ccccc23)NC1=O)[C@@H](C)O` [MP-544] (Ac-[Lys(N3)][βAla]LTF[R8]WWWAQ[Cba][S5]SAL-NH2; staple 6-13), the EC50 in data set [1] was above 50.6 µM. In addition, the Solubility result in data set [2] is “Poorly Behaved”. Also, the cell entry EC50 in “in vitro” came to 0.124 µM. Moreover, the EPSA in “physchem” is 227 A^2. Besides, the “Partition Coeff LogD” value in data set [3] is recorded as “Poorly Behaved”.
Take `CC(=O)N[C@@H](CCCCN=[N+]=[N-])C(=O)NCCC(=O)N[C@@H](CC(C)C)C(=O)N[C@H](C(=O)N[C@@H](Cc1ccccc1)C(=O)N[C@]1(C)CCCCCCC=CCCC[C@@](C)(C(=O)N[C@@H](CO)C(=O)N[C@@H](Cc2ccccc2)C(=O)N[C@@H](Cc2ccccc2)C(N)=O)NC(=O)[C@H](CC2CCC2)NC(=O)[C@H](CCC(N)=O)NC(=O)[C@H](CO)NC(=O)[C@H](Cc2c[nH]c3ccccc23)NC(=O)[C@H](Cc2ccc(O)cc2)NC(=O)[C@H](CCC(=O)O)NC1=O)[C@@H](C)O` [MP-545] (Ac-[Lys(N3)][βAla]LTF[R8]EYWSQ[Cba][S5]SFF-NH2; staple 6-13): the EC50 in data set [1] was above 50.6 µM. The Solubility entry in data set [2] is “Poorly Behaved”. Moreover, in “in vitro”, the cell entry EC50 worked out at 0.137 µM. In addition, in the data set “physchem”, the EPSA was determined as 241 A^2. The “Partition Coeff LogD” value in data set [3] was “Poorly Behaved”.
Consider `CC(=O)N[C@@H](CCCCN=[N+]=[N-])C(=O)NCCC(=O)N[C@@H](CC(C)C)C(=O)N[C@@H](Cc1c[nH]c2ccccc12)C(=O)N[C@@H](Cc1ccccc1)C(=O)N[C@]1(C)CCCCCCC=CCCC[C@@](C)(C(=O)N[C@@H](CO)C(=O)N[C@@H](C)C(=O)N[C@@H](C)C(N)=O)NC(=O)[C@H](CC2CCC2)NC(=O)[C@H](CCC(N)=O)NC(=O)[C@H](C)NC(=O)[C@H](Cc2c[nH]c3ccccc23)NC(=O)[C@H](Cc2ccc(O)cc2)NC(=O)[C@H](CCC(=O)O)NC1=O` [MP-1184] (Ac-[Lys(N3)][βAla]LWF[R8]EYWAQ[Cba][S5]SAA-NH2; staple 6-13), for which the EC50 in data set [1] was above 50 µM. In addition, in data set [2], the solubility kinetic was determined as 28.5 µM (≈ 58.6 µg/mL). Besides, in “in vitro”, the cell entry EC50 came out at 0.359 µM. Moreover, the EPSA in the data set “physchem” was determined as 239 A^2. The compound further returned a logD in data set [3] of 3.21.
